In patent US6525001B1, “Substituted pyrimidine and pyridine herbicides” (Mid-American Commercialization Corporation, priority 1997, dated 2003):

Assays:
Format in all cases: in vivo
rice (Oryza sativa) = assay: Test B flood test
How it was run: (§1)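 Read-out is a visual response score from 0 (no effect) to 10 (complete control), assigned by comparison with untreated controls. Treatment was applied at the 2-leaf stage, and plants stayed in the greenhouse for twelve to sixteen days before scoring.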

[1] = tested on: duck salad (Heteranthera limosa); assay: Test B flood test
How it was run: as §1

[2] = tested on: bamyardgrass (Echinochloa crus-galli); assay: Test B flood test
How it was run: as §1

[3] = tested on: smallflower flatsedge (Cyperus difformis); assay: Test B flood test
How it was run: as §1

[4] = tested on: velvetleaf (Abutilon theophrasti); assay: Test B pre-/postemergence; set-up: key: 0 is no effect; 10 is complete control
From the text: (§2) Seeds of bedstraw (Galium aparine), blackgrass (Alopecurus myosuroides), broadleaf signalgrass (Brachiaria decumbens), cocklebur (Xanthium strumarium), corn (Zea mays), crabgrass (Digitaria sanguinalis), giant foxtail (Setaria faberii), lambsquarters (Chenopodium album), momingglory (Ipomoea hederacea), pigweed (Amaranthus retroflexus), rape (Brassica napus), soybean (Glycine max), sugar beet (Beta vulgaris), velvetleaf (Abutilon theophrasti), wheat (Triticum aestivum), wild oat (Avena fatua) and purple nutsedge (Cyperus rotundus) tubers were planted and treated preemergence with test chemicals formulated in a non-phytotoxic solvent mixture which included a surfactant.
(§3) At the same time, these crop and weed species were also treated with postemergence applications of test chemicals formulated in the same manner. Plants ranged in height from 2 to 18 cm (1- to 4-leaf stage) for postemergence treatments. Plant species in the flood test consisted of rice (Oryza sativa), smallflower flatsedge (Cyperus difformis), duck salad (Heteranthera limosa) and bamyardgrass (Echinochloa crus-galli) grown to the 2-leaf stage for testing. Treated plants and controls were maintained in a greenhouse for twelve to sixteen days, after which all species were compared to controls and visually evaluated. Plant response ratings, summarized in Table B, are based on a scale of 0 to 10 where 0 is no effect and 10 is complete control. A dash (−) response means no test result.

wild oat (Avena fatua) = assay: Test B pre-/postemergence; set-up: key: 0 is no effect; 10 is complete control
From the text: as §2, §3

[5] = tested on: momingglory (Ipomoea hederacea); assay: Test B pre-/postemergence; set-up: key: 0 is no effect; 10 is complete control
From the text: as §2, §3

[6] = tested on: wheat (Triticum aestivum); assay: Test B pre-/postemergence; set-up: key: 0 is no effect; 10 is complete control
From the text: as §2, §3

[7] = tested on: crabgrass (Digitaria sanguinalis); assay: Test B pre-/postemergence; set-up: key: 0 is no effect; 10 is complete control; details: for Crabgrass plant response rating: Preemergence
From the text: as §2, §3

rape (Brassica napus) = assay: Test B pre-/postemergence; set-up: key: 0 is no effect; 10 is complete control
From the text: as §2, §3

[8] = tested on: purple nutsedge (Cyperus rotundus); assay: Test B pre-/postemergence; set-up: key: 0 is no effect; 10 is complete control
From the text: as §2, §3

[9] = tested on: sugar beet (Beta vulgaris); assay: Test B pre-/postemergence; set-up: key: 0 is no effect; 10 is complete control
From the text: as §2, §3

[10] = tested on: cocklebur (Xanthium strumarium); assay: Test B pre-/postemergence; set-up: key: 0 is no effect; 10 is complete control; details: for Plant response rating, Cocklebur: Postemergence; for Cocklebur plant response rating: Preemergence
From the text: as §2, §3

[11] = tested on: bedstraw (Galium aparine); assay: Test B pre-/postemergence; set-up: key: 0 is no effect; 10 is complete control; details: for Bedstraw plant response rating: Preemergence
From the text: as §2, §3

[12] = tested on: broadleaf signalgrass (Brachiaria decumbens); assay: Test B pre-/postemergence; set-up: key: 0 is no effect; 10 is complete control; details: for B. signalgrass plant response rating: Preemergence
From the text: as §2, §3

[13] = tested on: pigweed (Amaranthus retroflexus); assay: Test B pre-/postemergence; set-up: key: 0 is no effect; 10 is complete control
From the text: as §2, §3

soybean (Glycine max) = assay: Test B pre-/postemergence; set-up: key: 0 is no effect; 10 is complete control
From the text: as §2, §3

corn (Zea mays) = assay: Test B pre-/postemergence; set-up: key: 0 is no effect; 10 is complete control; details: for Corn plant response rating: Preemergence
From the text: as §2, §3

[14] = tested on: giant foxtail (Setaria faberii); assay: Test B pre-/postemergence; set-up: key: 0 is no effect; 10 is complete control
From the text: as §2, §3

[15] = tested on: blackgrass (Alopecurus myosuroides); assay: Test B pre-/postemergence; set-up: key: 0 is no effect; 10 is complete control; details: for Blackgrass plant response rating: Preemergence
From the text: as §2, §3

[16] = Rate 62 g/ha, Postemergence (flood test)
[17] = Rate 125 g/ha, Postemergence section (flood test species)
[18] = Rate 250 g/ha, Postemergence (flood test species)
[19] = Rate 125 g/ha, Postemergence, flood test
[20] = Rate 250 g/ha, Postemergence (so in the source)

## Cc1cnc(-c2ccc(Cl)cc2)nc1Cc1cccc(C(F)(F)F)c1 [Compound 28]
Rice (Oryza sativa); [16]
  Plant response rating, Rice: 2
Rice (Oryza sativa); [17]
  Rice plant response rating: 2
Rice (Oryza sativa); [18]
  Plant response rating, Rice: 3
[1]; [16]
  Plant response rating, Ducksalad: 2
[1]; [19]
  Plant response rating, Ducksalad: 3
[1]; [18]
  Plant response rating, Ducksalad: 6
[2]; [16]
  Plant response rating, Barnyardgrass: 3
[2]; [19]
  Plant response rating, Barnyardgrass: 4
[2]; [18]
  Plant response rating, Barnyardgrass: 5
[3]; [16]
  Plant response rating, S. Flatsedge: 5
[3]; [17]
  S. Flatsedge plant response rating: 8
[3]; [18]
  Plant response rating, S. Flatsedge: 8
[4]; Rate 62 g/ha, Postemergence
  Plant response rating, Velvetleaf: 3
[4]; Rate 62 g/ha, Preemergence
  Velvetleaf plant response rating: 1
[4]; Rate 125 g/ha, Postemergence
  Velvetleaf plant response rating: 4
[4]; Rate 125 g/ha, Preemergence
  Plant response rating, Velvetleaf: 1
[4]; Rate 250 g/ha, Postemergence
  Plant response rating, Velvetleaf: 8
[4]; [20]
  Plant response rating, Velvetleaf: 2
Wild oat (Avena fatua); Rate 62 g/ha, Postemergence
  Wild oats plant response rating: 4
Wild oat (Avena fatua); Rate 62 g/ha, Preemergence
  Wild oats plant response rating: 3
Wild oat (Avena fatua); Rate 125 g/ha, Postemergence
  Wild oats plant response rating: 5
Wild oat (Avena fatua); Rate 125 g/ha, Preemergence
  Plant response rating, Wild oats: 3
Wild oat (Avena fatua); Rate 250 g/ha, Postemergence
  Plant response rating, Wild oats: 6
Wild oat (Avena fatua); [20]
  Plant response rating, Wild oats: 4
[5]; Rate 62 g/ha, Postemergence
  Plant response rating, Morningglory: 3
[5]; Rate 62 g/ha, Preemergence
  Morningglory plant response rating: 2
[5]; Rate 125 g/ha, Postemergence
  Morningglory plant response rating: 3
[5]; Rate 125 g/ha, Preemergence
  Morningglory plant response rating: 2
[5]; Rate 250 g/ha, Postemergence
  Plant response rating, Morningglory: 3
[5]; [20]
  Plant response rating, Morningglory: 3
[6]; Rate 62 g/ha, Postemergence
  Wheat plant response rating: 3
[6]; Rate 62 g/ha, Preemergence
  Wheat plant response rating: 0
[6]; Rate 125 g/ha, Postemergence
  Wheat plant response rating: 4
[6]; Rate 125 g/ha, Preemergence
  Plant response rating, Wheat: 0
[6]; Rate 250 g/ha, Postemergence
  Plant response rating, Wheat: 5
[6]; [20]
  Plant response rating, Wheat: 0
[7]; Rate 62 g/ha, Postemergence
  Plant response rating, Crabgrass: 3
[7]; Rate 62 g/ha
  Crabgrass plant response rating: 2
[7]; Rate 125 g/ha, Postemergence
  Plant response rating, Crabgrass: 9
[7]; Rate 125 g/ha
  Crabgrass plant response rating: 4
[7]; Rate 250 g/ha, Postemergence
  Plant response rating, Crabgrass: 10
[7]; [20]
  Plant response rating, Crabgrass: 10
Rape (Brassica napus); Rate 62 g/ha, Postemergence
  Plant response rating, Rape: 9
Rape (Brassica napus); Rate 62 g/ha, Preemergence
  Rape plant response rating: 1
Rape (Brassica napus); Rate 125 g/ha, Postemergence
  Rape plant response rating: 9
Rape (Brassica napus); Rate 125 g/ha, Preemergence
  Rape plant response rating: 2
Rape (Brassica napus); Rate 250 g/ha, Postemergence
  Plant response rating, Rape: 10
Rape (Brassica napus); [20]
  Plant response rating, Rape: 4
[8]; Rate 62 g/ha, Postemergence
  Plant response rating, Nutsedge: 0
[8]; Rate 62 g/ha, Preemergence
  Nutsedge plant response rating: 0
[8]; Rate 125 g/ha, Postemergence
  Nutsedge plant response rating: 3
[8]; Rate 125 g/ha, Preemergence
  Nutsedge plant response rating: 0
[8]; [20]
  Plant response rating, Nutsedge: 0
[9]; Rate 62 g/ha, Postemergence
  Plant response rating, Sugarbeets: 9
[9]; Rate 62 g/ha, Preemergence
  Sugarbeets plant response rating: 0
[9]; Rate 125 g/ha, Postemergence
  Sugarbeets plant response rating: 9
[9]; Rate 125 g/ha, Preemergence
  Plant response rating, Sugarbeets: 2
[9]; Rate 250 g/ha, Postemergence
  Plant response rating, Sugarbeets: 10
[9]; [20]
  Plant response rating, Sugarbeets: 3
[10]; Rate 62 g/ha
  Plant response rating, Cocklebur: 7
  Cocklebur plant response rating: 0
[10]; Rate 125 g/ha
  Plant response rating, Cocklebur: 8
  Cocklebur plant response rating: 0
[10]; Rate 250 g/ha
  Plant response rating, Cocklebur: 8
[11]; Rate 62 g/ha, Postemergence
  Plant response rating, Bedstraw: 2
[11]; Rate 62 g/ha
  Bedstraw plant response rating: 2
[11]; Rate 125 g/ha, Postemergence
  Plant response rating, Bedstraw: 8
[11]; Rate 125 g/ha
  Bedstraw plant response rating: 4
[11]; Rate 250 g/ha, Postemergence
  Plant response rating, Bedstraw: 8
[11]; [20]
  Plant response rating, Bedstraw: 8
[12]; Rate 62 g/ha, Postemergence
  Plant response rating, B. signalgrass: 4
[12]; Rate 62 g/ha
  B. signalgrass plant response rating: 2
[12]; Rate 125 g/ha, Postemergence
  Plant response rating, B. signalgrass: 5
[12]; Rate 125 g/ha
  B. signalgrass plant response rating: 5
[12]; Rate 250 g/ha, Postemergence
  Plant response rating, B. signalgrass: 9
[12]; Rate 250 g/ha, Postemergence as printed in head r139 (second section for compounds 26-50)
  Plant response rating, B. signalgrass: 9
[13]; Rate 62 g/ha, Postemergence
  Plant response rating, Redroot pigweed: 8
[13]; Rate 62 g/ha, Preemergence
  Redroot pigweed plant response rating: 5
[13]; Rate 125 g/ha, Postemergence
  Redroot pigweed plant response rating: 9
[13]; Rate 125 g/ha, Preemergence
  Redroot pigweed plant response rating: 6
[13]; Rate 250 g/ha, Postemergence
  Plant response rating, Redroot pigweed: 10
[13]; [20]
  Plant response rating, Redroot pigweed: 7
Soybean (Glycine max); Rate 62 g/ha, Postemergence
  Plant response rating, Soybean: 4
Soybean (Glycine max); Rate 62 g/ha, Preemergence
  Soybean plant response rating: 0
Soybean (Glycine max); Rate 125 g/ha, Postemergence
  Soybean plant response rating: 7
Soybean (Glycine max); Rate 125 g/ha, Preemergence
  Plant response rating, Soybean: 0
Soybean (Glycine max); Rate 250 g/ha, Postemergence
  Plant response rating, Soybean: 7
Soybean (Glycine max); [20]
  Plant response rating, Soybean: 1
Corn (Zea mays); Rate 62 g/ha, Postemergence
  Plant response rating, Corn: 2
Corn (Zea mays); Rate 62 g/ha
  Corn plant response rating: 0
Corn (Zea mays); Rate 125 g/ha, Postemergence
  Plant response rating, Corn: 3
Corn (Zea mays); Rate 125 g/ha
  Corn plant response rating: 0
Corn (Zea mays); Rate 250 g/ha, Postemergence
  Plant response rating, Corn: 4
Corn (Zea mays); [20]
  Plant response rating, Corn: 1
[14]; Rate 62 g/ha, Postemergence
  Plant response rating, Giant foxtail: 3
[14]; Rate 62 g/ha, Preemergence
  Giant foxtail plant response rating: 4
[14]; Rate 125 g/ha, Postemergence
  Giant foxtail plant response rating: 4
[14]; Rate 125 g/ha, Preemergence
  Giant foxtail plant response rating: 9
[14]; Rate 250 g/ha, Postemergence
  Plant response rating, Giant foxtail: 9
[14]; [20]
  Plant response rating, Giant foxtail: 10
[15]; Rate 62 g/ha, Postemergence
  Plant response rating, Blackgrass: 4
[15]; Rate 62 g/ha
  Blackgrass plant response rating: 2
[15]; Rate 125 g/ha, Postemergence
  Plant response rating, Blackgrass: 5
[15]; Rate 125 g/ha
  Blackgrass plant response rating: 5
[15]; Rate 250 g/ha, Postemergence
  Plant response rating, Blackgrass: 8
[15]; [20]
  Plant response rating, Blackgrass: 6
